Results taken from the Kinase Knowledgebase extract (Sharma et al. 2016).

biological target: CDK2 (UniProt P24941); assay: Enzyme Assay; settings: not given

Row | Structure (SMILES) | IC50 | Ki
1 | N[C@H](COc1cncc(-c2cc3cn[nH]c3cn2)c1)Cc1c[nH]c2ccccc12 | 6 nM | 
2 | N[C@H](COc1cncc(-c2ccc3[nH]ncc3c2)c1)Cc1c[nH]c2ccccc12 | 63 nM | 42 nM

biological target: PIK3CA (human) (UniProt P42336); assay: Enzyme Assay; settings: not given
Sequence (P42336 whole entry, looked up): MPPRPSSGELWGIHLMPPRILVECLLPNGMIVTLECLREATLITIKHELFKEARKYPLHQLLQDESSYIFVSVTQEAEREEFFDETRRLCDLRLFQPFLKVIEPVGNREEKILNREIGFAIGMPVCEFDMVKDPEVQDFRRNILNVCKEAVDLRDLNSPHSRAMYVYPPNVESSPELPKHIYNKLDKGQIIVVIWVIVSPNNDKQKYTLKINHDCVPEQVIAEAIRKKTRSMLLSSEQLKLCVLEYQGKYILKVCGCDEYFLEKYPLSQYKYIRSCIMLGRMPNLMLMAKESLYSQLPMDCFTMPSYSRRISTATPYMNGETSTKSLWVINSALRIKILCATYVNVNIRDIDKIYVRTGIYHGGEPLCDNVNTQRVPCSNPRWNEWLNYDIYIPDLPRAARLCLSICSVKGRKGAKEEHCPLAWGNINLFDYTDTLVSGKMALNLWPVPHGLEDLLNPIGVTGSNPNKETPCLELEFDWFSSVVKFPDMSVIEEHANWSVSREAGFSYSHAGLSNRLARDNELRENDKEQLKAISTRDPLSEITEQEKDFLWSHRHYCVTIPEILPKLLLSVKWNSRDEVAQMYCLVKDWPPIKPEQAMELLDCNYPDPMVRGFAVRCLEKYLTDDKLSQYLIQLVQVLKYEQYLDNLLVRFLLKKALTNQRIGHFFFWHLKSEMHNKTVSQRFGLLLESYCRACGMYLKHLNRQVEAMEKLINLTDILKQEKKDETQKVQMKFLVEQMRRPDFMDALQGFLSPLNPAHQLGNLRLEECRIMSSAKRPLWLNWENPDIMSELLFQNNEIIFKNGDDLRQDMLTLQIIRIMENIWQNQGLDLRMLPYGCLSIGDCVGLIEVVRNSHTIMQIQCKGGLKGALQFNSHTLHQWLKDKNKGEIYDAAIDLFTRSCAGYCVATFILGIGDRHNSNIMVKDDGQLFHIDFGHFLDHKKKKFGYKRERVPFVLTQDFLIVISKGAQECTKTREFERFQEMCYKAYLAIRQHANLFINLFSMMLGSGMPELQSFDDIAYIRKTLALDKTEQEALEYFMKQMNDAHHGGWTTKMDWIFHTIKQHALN

Row | IC50 | Structure (SMILES)
3 | 3500 nM | C[C@@H](Oc1ccccc1)c1cc(C(=O)N(C)CCO)cn2c(=O)cc(N3CCOCC3)nc12
4 | 7650 nM | O=C(c1nn([C@@H]2CCCN(CCN3CCOCC3)C2)c2c1CS(=O)(=O)c1c(F)cccc1-2)N1CCOCC1
5 | 660 nM | CCN1CCN(c2cccc3c2CCN3C(=O)Cc2nc(N3CCOCC3)cc(=O)[nH]2)CC1
6 | 142000 nM | O=c1cc(NCc2ccccc2)nc(N2CCOCC2)[nH]1

biological target: PIK3CB (Human) (UniProt P42338); assay: Enzyme Assay; settings: not given
Sequence (P42338 whole entry, looked up): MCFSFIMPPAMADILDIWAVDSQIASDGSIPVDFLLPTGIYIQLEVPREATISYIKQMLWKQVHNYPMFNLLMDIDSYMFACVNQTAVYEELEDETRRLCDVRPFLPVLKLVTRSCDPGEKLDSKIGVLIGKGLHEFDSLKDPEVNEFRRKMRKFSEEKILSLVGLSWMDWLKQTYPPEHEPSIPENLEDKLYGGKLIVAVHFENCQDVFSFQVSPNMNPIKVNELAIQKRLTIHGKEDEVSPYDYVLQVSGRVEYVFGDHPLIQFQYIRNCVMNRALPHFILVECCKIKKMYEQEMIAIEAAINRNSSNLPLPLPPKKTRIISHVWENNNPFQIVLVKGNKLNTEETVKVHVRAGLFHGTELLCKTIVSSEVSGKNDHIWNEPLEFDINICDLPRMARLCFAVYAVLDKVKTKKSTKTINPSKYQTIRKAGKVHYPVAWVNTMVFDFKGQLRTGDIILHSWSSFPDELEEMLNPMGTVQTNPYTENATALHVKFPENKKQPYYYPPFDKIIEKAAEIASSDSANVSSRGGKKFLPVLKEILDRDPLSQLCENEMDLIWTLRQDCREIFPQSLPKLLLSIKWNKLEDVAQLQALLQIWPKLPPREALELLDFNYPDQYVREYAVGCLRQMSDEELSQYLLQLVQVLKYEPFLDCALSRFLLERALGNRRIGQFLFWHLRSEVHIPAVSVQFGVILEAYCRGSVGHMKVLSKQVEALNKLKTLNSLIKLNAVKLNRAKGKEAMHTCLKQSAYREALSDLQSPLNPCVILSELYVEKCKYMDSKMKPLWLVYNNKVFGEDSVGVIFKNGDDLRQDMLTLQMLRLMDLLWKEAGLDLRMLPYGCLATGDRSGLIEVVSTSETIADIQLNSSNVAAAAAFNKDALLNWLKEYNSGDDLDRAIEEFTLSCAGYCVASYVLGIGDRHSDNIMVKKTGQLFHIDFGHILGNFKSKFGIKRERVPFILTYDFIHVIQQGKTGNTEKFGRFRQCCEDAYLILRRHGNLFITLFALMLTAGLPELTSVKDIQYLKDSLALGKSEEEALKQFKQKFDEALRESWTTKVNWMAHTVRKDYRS

Row | IC50 | Structure (SMILES)
7 | 100 nM | C[C@@H](Oc1ccccc1)c1cc(C(=O)N(C)CCO)cn2c(=O)cc(N3CCOCC3)nc12
8 | 8 nM | C[C@H](Nc1ncnc2ccc(Cl)nc12)c1nc2c(F)ccc(Cl)c2c(=O)n1N1CCNCC1
9 | 2450 nM | O=C(c1nn([C@@H]2CCCN(CCN3CCOCC3)C2)c2c1CS(=O)(=O)c1c(F)cccc1-2)N1CCOCC1
10 | 332 nM | CCN1CCN(c2cccc3c2CCN3C(=O)Cc2nc(N3CCOCC3)cc(=O)[nH]2)CC1
11 | 34000 nM | O=c1cc(NCc2ccccc2)nc(N2CCOCC2)[nH]1
12 | 359 nM | CC[C@H](Nc1ncnc(N)c1-c1nnc(C)o1)c1cc2cccc(Cl)c2c(=O)n1-c1ccccc1

biological target: PIK3CD (Human) (UniProt O00329); assay: Enzyme Assay; settings: not given

Row | IC50 | Structure (SMILES)
13 | 3 nM | C[C@H](Nc1ncnc2ccc(Cl)nc12)c1nc2c(F)ccc(Cl)c2c(=O)n1N1CCNCC1
14 | 15 nM | O=C(c1nn([C@@H]2CCCN(CCN3CCOCC3)C2)c2c1CS(=O)(=O)c1c(F)cccc1-2)N1CCOCC1
15 | 2 nM | CCN1CCN(c2cccc3c2CCN3C(=O)Cc2nc(N3CCOCC3)cc(=O)[nH]2)CC1

biological target: PIK3CG (human) (UniProt P48736); assay: Enzyme Assay; settings: not given

Row | IC50 | Structure (SMILES)
16 | 3100 nM | C[C@H](Nc1ncnc2ccc(Cl)nc12)c1nc2c(F)ccc(Cl)c2c(=O)n1N1CCNCC1
17 | 10000 nM | CCN1CCN(c2cccc3c2CCN3C(=O)Cc2nc(N3CCOCC3)cc(=O)[nH]2)CC1

biological target: PIK3CB (Human) (UniProt P42338); assay: Cell-Based Assay; settings: mda-468

Row | IC50 | Structure (SMILES)
18 | > 10000 nM | C[C@H](Nc1ncnc(N)c1C#N)c1nc2ccc(F)cc2nc1-c1ccccn1
19 | 3800 nM | C[C@H](Nc1ncnc(N)c1C#N)c1cc2ccc(F)cc2nc1-c1cccc(F)c1
20 | 1950 nM | C[C@H](Nc1ncnc(N)c1C#N)c1cc2ccc(F)cc2nc1-c1ccccn1

biological target: MAPK14 (UniProt Q16539); assay: Inhibition of MAPK Kinase Activity; settings: not given
Sequence (Q16539 whole entry, looked up): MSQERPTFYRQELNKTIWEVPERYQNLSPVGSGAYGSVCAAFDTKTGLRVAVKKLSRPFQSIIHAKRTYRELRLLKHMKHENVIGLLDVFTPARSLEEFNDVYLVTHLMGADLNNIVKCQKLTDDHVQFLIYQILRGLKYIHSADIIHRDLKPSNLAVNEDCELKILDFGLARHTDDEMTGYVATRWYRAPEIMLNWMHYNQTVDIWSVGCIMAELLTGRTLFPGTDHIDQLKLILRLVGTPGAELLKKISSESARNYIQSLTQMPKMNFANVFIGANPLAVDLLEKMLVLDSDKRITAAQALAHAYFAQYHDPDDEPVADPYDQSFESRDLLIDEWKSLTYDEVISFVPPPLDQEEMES

Row | IC50 | Structure (SMILES)
21 | > 10000 nM | Clc1cccc(Nc2cncc(-c3cncc(NCCCn4cncn4)c3)n2)c1
22 | > 10000 nM | Clc1cccc(Nc2cncc(-c3cncc(NCCCc4cccnc4)c3)n2)c1
23 | > 10000 nM | OCCCCNc1cncc(-c2cncc(Nc3cccc(Cl)c3)n2)c1
24 | > 10000 nM | CN(C)CCNc1cncc(-c2cncc(Nc3cccc(Cl)c3)n2)c1
25 | > 10000 nM | OCCCNc1cncc(-c2cncc(Nc3cccc(Cl)c3)n2)c1
26 | > 10000 nM | Clc1cccc(Nc2cncc(-c3cncc(NCCCn4cccn4)c3)n2)c1

Row | Structure (SMILES) | IC50
27 | N[C@H](COc1cncc(-c2cc3cn[nH]c3cn2)c1)Cc1c[nH]c2ccccc12 | 750 nM
28 | N[C@H](COc1cncc(-c2ccc3[nH]ncc3c2)c1)Cc1c[nH]c2ccccc12 | 12200 nM

biological target: EGFR (UniProt P00533); assay: not given; settings: not given
Sequence (P00533 whole entry, looked up): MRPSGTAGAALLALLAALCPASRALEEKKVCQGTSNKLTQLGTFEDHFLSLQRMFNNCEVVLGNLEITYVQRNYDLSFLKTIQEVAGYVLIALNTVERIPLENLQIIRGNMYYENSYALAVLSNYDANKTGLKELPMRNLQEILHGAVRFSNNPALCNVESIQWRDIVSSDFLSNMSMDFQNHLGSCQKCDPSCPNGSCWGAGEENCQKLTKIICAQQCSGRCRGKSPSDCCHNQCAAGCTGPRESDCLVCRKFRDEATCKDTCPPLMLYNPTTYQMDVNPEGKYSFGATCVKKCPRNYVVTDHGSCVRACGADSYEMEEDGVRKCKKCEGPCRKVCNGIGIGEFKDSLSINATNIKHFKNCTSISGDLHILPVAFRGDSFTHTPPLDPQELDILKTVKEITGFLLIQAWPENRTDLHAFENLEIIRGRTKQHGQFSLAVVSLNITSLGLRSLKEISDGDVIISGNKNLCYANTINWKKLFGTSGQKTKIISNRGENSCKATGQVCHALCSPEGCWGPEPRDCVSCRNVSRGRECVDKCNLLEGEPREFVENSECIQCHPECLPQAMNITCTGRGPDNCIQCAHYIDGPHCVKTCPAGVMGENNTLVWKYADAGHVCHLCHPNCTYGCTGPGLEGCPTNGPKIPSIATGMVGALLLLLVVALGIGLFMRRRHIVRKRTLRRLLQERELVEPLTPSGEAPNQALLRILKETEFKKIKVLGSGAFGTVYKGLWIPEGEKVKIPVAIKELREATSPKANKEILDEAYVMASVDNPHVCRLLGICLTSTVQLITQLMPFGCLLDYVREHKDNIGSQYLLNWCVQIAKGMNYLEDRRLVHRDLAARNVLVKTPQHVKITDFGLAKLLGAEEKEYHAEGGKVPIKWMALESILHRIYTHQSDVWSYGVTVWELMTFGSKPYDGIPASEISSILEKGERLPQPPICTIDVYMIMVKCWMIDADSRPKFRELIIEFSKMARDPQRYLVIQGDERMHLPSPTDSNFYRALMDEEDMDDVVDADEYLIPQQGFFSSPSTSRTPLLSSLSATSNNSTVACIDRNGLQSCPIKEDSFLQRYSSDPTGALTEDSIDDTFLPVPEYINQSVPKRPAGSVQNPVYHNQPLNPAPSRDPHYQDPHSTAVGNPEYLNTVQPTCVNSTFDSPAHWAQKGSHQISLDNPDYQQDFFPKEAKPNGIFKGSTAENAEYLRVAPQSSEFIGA

Row | inhibition | Structure (SMILES)
29 | 2.9 | N[C@@H](CSc1cc(C[C@H](N)C(=O)O)cc(O)c1O)C(=O)O
30 | 5.2 | C[C@@](Cc1cc(O)c(O)c(SC[C@H](NC(=O)CC[C@H](N)C(=O)O)C(=O)NCC(=O)O)c1)(NC(=O)CCN)C(=O)O
31 | 8.2 | NCCC(=O)N[C@H](Cc1cc(O)c(O)c(SC[C@H](NC(=O)CC[C@H](N)C(=O)O)C(=O)NCC(=O)O)c1)C(=O)O
32 | 2.2 | NCCC(=O)N[C@@H](Cc1cc(O)c(O)c(SC[C@H](NC(=O)CC[C@H](N)C(=O)O)C(=O)NCC(=O)O)c1)C(=O)O
33 | 4.9 | NCCC(=O)NCCc1cc(O)c(O)c(SC[C@H](NC(=O)CC[C@H](N)C(=O)O)C(=O)NCC(=O)O)c1
34 | 2.5 | NCCC(=O)N[C@@H](Cc1cc(O)c(O)c(SC[C@H](N)C(=O)O)c1)C(=O)O
35 | 7.6 | NCCc1cc(SC[C@H](NC(=O)CC[C@H](N)C(=O)O)C(=O)NCC(=O)O)c(O)c(O)c1SC[C@H](NC(=O)CC[C@H](N)C(=O)O)C(=O)NCC(=O)O
36 | 1 | NCCc1cc(O)c(O)c(SC[C@H](NC(=O)CC[C@H](N)C(=O)O)C(=O)NCC(=O)O)c1
37 | 4.4 | N[C@@H](CCC(=O)N[C@@H](CSc1cc(C[C@H](N)C(=O)O)cc(O)c1O)C(=O)NCC(=O)O)C(=O)O

biological target: EGFR (UniProt P00533); assay: not given; settings: not given; remark: another data set of the same source

Row | IC50 | Structure (SMILES)
38 | > 400000 nM | CC1=CCC[C@H]2[C@](C)(CC3=C(O)C(=O)C=C(N[C@H](CO)C(=O)O)C3=O)[C@@H](C)CC[C@]12C
39 | > 400000 nM | CC1=CCC[C@H]2[C@](C)(CC3=C(O)C(=O)C=C(NCC(=O)O)C3=O)[C@@H](C)CC[C@]12C
40 | 250000 nM | CC1=CCC[C@H]2[C@](C)(CC3=C(O)C(=O)C=C(N[C@H](C(=O)O)C(C)C)C3=O)[C@@H](C)CC[C@]12C
41 | > 400000 nM | CC1=CCC[C@H]2[C@](C)(CC3=C(N[C@@H](CO)C(=O)O)C(=O)C=C(N[C@@H](CO)C(=O)O)C3=O)[C@@H](C)CC[C@]12C
42 | 200000 nM | CC1=CCC[C@H]2[C@](C)(CC3=C(N[C@H](C(=O)O)[C@@H](C)O)C(=O)C=C(N[C@H](C(=O)O)[C@@H](C)O)C3=O)[C@@H](C)CC[C@]12C

biological target: EGFR (human) (UniProt P00533); assay: not given; settings: not given
Sequence (P00533 whole entry, looked up): as above

Row | IC50 | Structure (SMILES)
43 | > 100000 nM | O=C(O)/C(=C1/C(=O)Nc2ccccc21)c1ccccc1
44 | > 100000 nM | Cc1cc(C)c(/C(C(=O)Nc2cccc(N(C)C)c2)=C2\C(=O)Nc3ccccc32)[nH]1
45 | > 100000 nM | CCN(CC)Cc1cc(NC(=O)/C(=C2/C(=O)Nc3ccccc32)c2[nH]c(C)cc2C)ccc1O
46 | > 100000 nM | Cc1cc(C)c(/C(C(=O)Nc2cccc(F)c2)=C2\C(=O)Nc3ccccc32)[nH]1
47 | > 100000 nM | Cc1cc(C)c(/C(C(=O)Nc2ccccc2Cl)=C2\C(=O)Nc3ccccc32)[nH]1
48 | > 100000 nM | CCN(CC)CCNC(=O)/C(=C1/C(=O)Nc2ccccc21)c1[nH]c(C)cc1C
49 | > 100000 nM | Cc1cc(C)c(/C(C(=O)O)=C2\C(=O)Nc3ccccc32)[nH]1
50 | > 100000 nM | Cc1cc(C)c(/C(C(=O)Nc2ccc(F)c(Cl)c2)=C2\C(=O)Nc3ccccc32)[nH]1

biological target: EGFR (UniProt P00533); assay: not given; settings: not given; remark: another data set of the same source

Row | IC50 | Structure (SMILES)
51 | 1 to 5000 nM | C#Cc1cccc(Nc2ncnc3cccc(CN4CC[C@@H](N)[C@H](CO)C4)c23)c1
52 | 1 to 5000 nM | COc1cccc(Nc2ncnc3cccc(CN4CCC(N)CC4)c23)c1
53 | 1 to 5000 nM | CNC(=O)[C@@H]1CN(Cc2cccc3ncnc(Nc4cccc(OC)c4)c23)CC[C@H]1N
54 | 1 to 5000 nM | COc1cccc(Nc2ncnc3cccc(CN4CC[C@@H](N)[C@H](O)C4)c23)c1
55 | 1 to 5000 nM | N[C@@H]1CCN(Cc2cccc3ncnc(Nc4ccc5c(cnn5Cc5cccc(F)c5)c4)c23)C[C@H]1O
56 | 1 to 5000 nM | C#Cc1cccc(Nc2ncnc3cccc(CN4CC[C@@H](N)[C@H](O)C4)c23)c1
57 | 1 to 5000 nM | NC1CCN(Cc2cccc3ncnc(Nc4ccc(OCc5cccc(F)c5)c(Cl)c4)c23)CC1
58 | 1 to 5000 nM | N[C@@H]1CCN(Cc2cccc3ncnc(Nc4cccc(Cl)c4)c23)C[C@H]1O

biological target: EGFR (human) (UniProt P00533); assay: not given; settings: not given; remark: another data set of the same source

Row | IC50 | Structure (SMILES)
59 | 346 nM | CC(C)(C)OC(=O)NCCCNC(=O)c1sc2ncnc3c2c1NC(=O)N3c1ccc2c(ccn2Cc2cccc(F)c2)c1
60 | 1700 nM | O=C(O)c1sc2ncnc3c2c1NC(=O)N3c1ccc(F)c(Cl)c1
61 | 44 nM | O=C(Nc1ccc(CNC[C@@H]2CCCO2)cc1)c1sc2ncnc3c2c1NC(=O)N3c1ccc(F)c(Cl)c1
62 | 168 nM | CC(C)(C)OC(=O)N1CCC(Cc2ccc(NC(=O)c3sc4ncnc5c4c3NC(=O)N5c3ccc4c(ccn4Cc4cccc(F)c4)c3)cc2)CC1
63 | 116 nM | N#Cc1ccc(NC(=O)c2sc3ncnc4c3c2NC(=O)N4c2ccc(F)c(Cl)c2)cn1
64 | 23 nM | O=C(Nc1ccc(CN2CCOCC2)cc1)c1sc2ncnc3c2c1NC(=O)N3c1ccc(F)cc1Cl
65 | 110 nM | O=C(Nc1ccc(CN2CCCCC2)cc1)c1sc2ncnc3c2c1NC(=O)N3c1ccc(Cc2ccccc2)cc1
66 | 31 nM | C[C@@H]1CN(Cc2ccc(NC(=O)c3sc4ncnc5c4c3NC(=O)N5c3ccc(Oc4ccccc4)cc3)cc2)C[C@H](C)O1

biological target: EGFR (human) (UniProt P00533); assay: not given; settings: not given; remark: another data set of the same source

Row | IC50 | Structure (SMILES)
67 | 35.5 nM | FC(F)(F)c1cccc(Nc2ncnc3sc4c(c23)CCCC4)c1
68 | 10.5 nM | c1ccc(Nc2ncnc3sc4c(c23)CCCC4)cc1
69 | 2.59 nM | O=[N+]([O-])c1cccc(Nc2ncnc3sc4c(c23)CCCC4)c1
70 | 1.97 nM | Clc1cccc(Nc2ncnc3sc4c(c23)CCCC4)c1
71 | 50.3 nM | Brc1ccc(Nc2ncnc3sc4c(c23)CCCC4)cc1
72 | 34 nM | COc1cccc(Nc2ncnc3sc4c(c23)CCCC4)c1
73 | 27.4 nM | Oc1ccc(Nc2ncnc3sc4c(c23)CCCC4)cc1
74 | 7.89 nM | Oc1cccc(Nc2ncnc3sc4c(c23)CCCC4)c1

biological target: EGFR (human) (UniProt P00533); assay: not given; settings: a431

Row | IC50 | Structure (SMILES)
75 | 350 nM | C=CC(=O)N1CC[C@H](C(=O)Nc2ccc3ncnc(Nc4ccc(OCc5ccccn5)c(Cl)c4)c3c2)C1
76 | 32 nM | C=CC(=O)N1CCC[C@H]1C(=O)Nc1ccc2ncnc(Nc3ccc(OCc4ccccn4)c(Cl)c3)c2c1
77 | 105 nM | C=CC(=O)N1CCCC[C@H]1C(=O)Nc1ccc2ncnc(Nc3ccc(OCc4ccccn4)c(Cl)c3)c2c1
78 | 218 nM | C=CC(=O)N1CC[C@H]1C(=O)Nc1ccc2ncnc(Nc3ccc(OCc4ccccn4)c(Cl)c3)c2c1
79 | 286 nM | C=CC(=O)N1CCC[C@H](C(=O)Nc2ccc3ncnc(Nc4ccc(OCc5ccccn5)c(Cl)c4)c3c2)C1
80 | 513 nM | C=CC(=O)N1CCC(C(=O)Nc2ccc3ncnc(Nc4ccc(OCc5ccccn5)c(Cl)c4)c3c2)CC1
81 | 1400 nM | C=CC(=O)N1CC(C(=O)Nc2ccc3ncnc(Nc4ccc(OCc5ccccn5)c(Cl)c4)c3c2)C1
82 | 567 nM | C=CC(=O)N1CCC[C@@H]1C(=O)Nc1ccc2ncnc(Nc3ccc(OCc4ccccn4)c(Cl)c3)c2c1

biological target: EGFR (human) (UniProt P00533); assay: not given; settings: not given; remark: another data set of the same source

Row | IC50 | Structure (SMILES)
83 | < 100 nM | COCCNc1nc(-c2cccc(OC)c2)c(-c2ccnc(Nc3ccc(N4CCOCC4)c(Cl)c3)n2)s1
84 | < 100 nM | CCNc1nc(-c2cccc(OC)c2)c(-c2ccnc(Nc3ccc(OCCN4CCCC4)c(F)c3)n2)s1
85 | < 100 nM | CCNc1nc(-c2cccc(O)c2)c(-c2ccnc(Nc3ccc(OCCN4CCCC4)c(Cl)c3)n2)s1
86 | 100 to 1000 nM | CCNc1nc(-c2cccc(OC)c2)c(-c2ccnc(Nc3ccc(OC4CCN(CCS(C)(=O)=O)CC4)c(F)c3)n2)s1

The remaining lines, values behind:

Row | Structure (SMILES) | IC50
87 | Fc1cc(Nc2nccc(-c3sc(N4CCCC4)nc3-c3cccc(Cl)c3)n2)ccc1OCCN1CCCC1 | 100 to 1000 nM
88 | COc1cc(-c2nc(N3CCCC3)sc2-c2ccnc(Nc3ccc(OCCN4CCCC4)c(F)c3)n2)ccc1Cl | 100 to 1000 nM
89 | CCNc1nc(-c2cccc(Cl)c2)c(-c2ccnc(Nc3ccc(OCCN(C)C)c(Cl)c3)n2)s1 | < 100 nM
90 | CCNc1nc(-c2cccc(OC)c2)c(-c2ccnc(Nc3ccc(OCCN(C)C)c(C)c3)n2)s1 | < 100 nM
